Assay results: PubChem BioAssay (NCI)
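Grown in 96-well plates, cells were treated for 48 hours with each compound at five concentrations. Insufficient inhibition: endpoint recorded as highest concentration tested. GI50 = concentration required for 50% inhibition of growth. TGI: concentration producing complete growth inhibition.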

Legend:
Experiment in all cases: growth of human tumour cells (NCI), 48 h
[1] = test system: UACC-257 melanoma
[2] = test system: SF-539 CNS
[3] = test system: HCC-2998 colon
[4] = test system: K-562 leukemia
[5] = test system: UO-31 renal
[6] = test system: HT29 colon
[7] = test system: MOLT-4 leukemia
[8] = test system: MDA-MB-231 breast
[9] = test system: SK-MEL-5 melanoma
[10] = test system: BT-549 breast
[11] = test system: UACC-62 melanoma
[12] = test system: NCI/ADR-RES ovarian
[13] = test system: PC-3 prostate
[14] = test system: LOX IMVI melanoma
[15] = test system: HOP-62 NSCLC
[16] = test system: NCI-H226 lung
[17] = test system: SW-620 colon
[18] = test system: MALME-3M melanoma
[19] = test system: IGROV1 ovarian
[20] = test system: A498 renal
[21] = test system: RXF 393 renal
[22] = test system: OVCAR-8 ovarian
[23] = test system: SR leukemia
[24] = test system: NCI-H460 lung
[25] = test system: OVCAR-4 ovarian
[26] = test system: HL-60(TB) leukemia
[27] = test system: MCF7 breast
[28] = test system: EKVX NSCLC
[29] = test system: SK-MEL-2 melanoma
[30] = test system: SF-268 CNS
[31] = test system: DU-145 prostate
[32] = test system: RPMI-8226 leukemia
[33] = test system: CAKI-1 renal
[34] = test system: SNB-19 CNS
[35] = test system: NCI-H522 lung
[36] = test system: SK-MEL-28 melanoma
[37] = test system: SN12C renal
[38] = test system: OVCAR-3 ovarian
[39] = test system: COLO 205 colon
[40] = test system: SK-OV-3 ovarian
[41] = test system: OVCAR-5 ovarian
[42] = test system: SNB-75 CNS
[43] = test system: NCI-H23 lung
[44] = test system: HCT-116 colon
[45] = test system: ACHN renal
[46] = test system: SF-295 CNS
[47] = test system: HS 578T breast
[48] = test system: U251 CNS
[49] = test system: 786-0 renal
[50] = test system: HCT-15 colon
[51] = test system: A549 NSCLC
[52] = test system: MDA-MB-435
[53] = test system: TK-10 renal
[54] = test system: KM12 colon
[55] = test system: M14 melanoma

`COc1ccc2c(c1)c(-c1ccc(-c3cn(C)c4ccc(OC)cc34)s1)cn2C` gave a GI50 [1] of over 100 µM, a TGI [1] of over 100 µM and a GI50 [2] of over 100 µM. It also gave a TGI [2] of over 100 µM, a GI50 [3] of over 100 µM and a TGI [3] of over 100 µM. It also gave a GI50 [4] of over 100 µM, a TGI [4] of over 100 µM and a GI50 [5] of over 100 µM. It also gave a TGI [5] of over 100 µM, a GI50 [6] of over 100 µM and a TGI [6] of over 100 µM. The GI50 [7] was over 100 µM, the TGI [7] was over 100 µM and the GI50 [8] was over 100 µM. It also gave a TGI [8] of over 100 µM, a GI50 [9] of over 100 µM and a TGI [9] of over 100 µM. The GI50 [10] was over 100 µM, the TGI [10] was over 100 µM and the GI50 [11] was over 100 µM. The TGI [11] was over 100 µM, the GI50 [12] was over 100 µM and the TGI [12] was over 100 µM. For the same molecule, the GI50 [13] was over 100 µM, the TGI [13] was over 100 µM and the GI50 [14] was over 100 µM. It also gave a TGI [14] of over 100 µM, a GI50 [15] of over 100 µM and a TGI [15] of over 100 µM. It also gave a GI50 [16] of over 100 µM, a TGI [16] of over 100 µM and a GI50 [17] of over 100 µM. It also gave a TGI [17] of over 100 µM, a GI50 [18] of over 100 µM and a TGI [18] of over 100 µM. It also gave a GI50 [19] of over 100 µM, a TGI [19] of over 100 µM and a GI50 [20] of over 100 µM. It also gave a TGI [20] of over 100 µM, a GI50 [21] of over 100 µM and a TGI [21] of over 100 µM. The GI50 [22] was over 100 µM, the TGI [22] was over 100 µM and the GI50 [23] was over 100 µM. The TGI [23] was over 100 µM, the GI50 [24] was over 100 µM and the TGI [24] was over 100 µM. The GI50 [25] was 90.2 µM, the TGI [25] was over 100 µM and the GI50 [26] was over 100 µM. For the same molecule, the TGI [26] was over 100 µM, the GI50 [27] was over 100 µM and the TGI [27] was over 100 µM. The GI50 [28] was over 100 µM, the TGI [28] was over 100 µM and the GI50 [29] was over 100 µM. The TGI [29] was over 100 µM, the GI50 [30] was over 100 µM and the TGI [30] was over 100 µM. The GI50 [31] was over 100 µM, the TGI [31] was over 100 µM and the GI50 [32] was over 100 µM. The TGI [32] was over 100 µM, the GI50 [33] was over 100 µM and the TGI [33] was over 100 µM. The GI50 [34] was over 100 µM, the TGI [34] was over 100 µM and the GI50 [35] was over 100 µM. For the same molecule, the TGI [35] was over 100 µM, the GI50 [36] was over 100 µM and the TGI [36] was over 100 µM. The GI50 [37] was over 100 µM, the TGI [37] was over 100 µM and the GI50 [38] was over 100 µM. It also gave a TGI [38] of over 100 µM, a GI50 [39] of over 100 µM and a TGI [39] of over 100 µM. For the same molecule, the GI50 [40] was over 100 µM, the TGI [40] was over 100 µM and the GI50 [41] was over 100 µM. It also gave a TGI [41] of over 100 µM, a GI50 [42] of 49.4 µM and a TGI [42] of over 100 µM. It also gave a GI50 [43] of over 100 µM, a TGI [43] of over 100 µM and a GI50 [44] of over 100 µM. For the same molecule, the TGI [44] was over 100 µM, the GI50 [45] was over 100 µM and the TGI [45] was over 100 µM. It also gave a GI50 [46] of over 100 µM, a TGI [46] of over 100 µM and a GI50 [47] of over 100 µM. It also gave a TGI [47] of over 100 µM, a GI50 [48] of over 100 µM and a TGI [48] of over 100 µM. It also gave a GI50 [49] of over 100 µM, a TGI [49] of over 100 µM and a GI50 [50] of over 100 µM. It also gave a TGI [50] of over 100 µM, a GI50 [51] of over 100 µM and a TGI [51] of over 100 µM. For the same molecule, the GI50 [52] was over 100 µM, the TGI [52] was over 100 µM and the GI50 [53] was over 100 µM. It also gave a TGI [53] of over 100 µM, a GI50 [54] of over 100 µM and a TGI [54] of over 100 µM. The GI50 [55] was over 100 µM and the TGI [55] was over 100 µM.
